According to article PMC9736374, “Design, Synthesis and Antimicrobial Properties of New Tetracyclic Quinobenzothiazine Derivatives” (International Journal of Molecular Sciences, 2022):
Blank lines part the entries; values can stand above or below the compound they belong to.

Tests used:
[1] = test system: Staphylococcus aureus ATCC 29213; assay: MIC, microtitration broth method; format: cell-based; conditions: ATCC29213; SA = Staphylococcus aureus ATCC 29213; 24 h, 37 °C
[2] = test system: methicillin-resistant S. aureus SA 3202 (MRSA1); assay: MIC, microtitration broth method; format: cell-based; conditions: Staphylococcus aureus; MRSA1 = SA 3202; 24 h, 37 °C
[3] = test system: methicillin-resistant S. aureus SA 630 (MRSA2); assay: MIC, microtitration broth method; format: cell-based; conditions: Staphylococcus aureus; MRSA2 = SA 630; 24 h, 37 °C
[4] = test system: methicillin-resistant S. aureus 63718 (MRSA3); assay: MIC, microtitration broth method; format: cell-based; conditions: Staphylococcus aureus; MRSA3 = 63718; 24 h, 37 °C
[5] = test system: Enterococcus faecalis ATCC 29212; assay: MIC, microtitration broth method; format: cell-based; conditions: ATCC29212; EF = Enterococcus faecalis; 24 h, 37 °C
[6] = test system: vancomycin-resistant E. faecalis VRE 342B (VRE1); assay: MIC, microtitration broth method; format: cell-based, Enterococcus faecalis; conditions: VRE1 = VRE 342B; 24 h, 37 °C
[7] = test system: vancomycin-resistant E. faecalis VRE 368 (VRE2); assay: MIC, microtitration broth method; format: cell-based, Enterococcus faecalis; conditions: VRE2 = VRE 368; 24 h, 37 °C
[8] = test system: vancomycin-resistant E. faecalis VRE 725B (VRE3); assay: MIC, microtitration broth method; format: cell-based, Enterococcus faecalis; conditions: VRE3 = VRE 725B; 24 h, 37 °C
M. smegmatis ATCC 700084 = assay: In vitro antimycobacterial MIC, broth dilution micro-method; format: cell-based, Mycobacterium smegmatis; conditions: Mycolicibacterium smegmatis, ATCC700084, 72 h; MS = M. smegmatis ATCC 700084; 3 days, 37 °C
[9] = test system: Mycobacterium marinum CAMP 5644; assay: as above; format: cell-based; conditions: CAMP5644, 504 h; MM = Mycobacterium marinum CAMP 5644; 21 days, 28 °C
[10] = test system: Staphylococcus aureus ATCC 29213; assay: MBC, agar aliquot subculture method; format: cell-based; conditions: ATCC29213; SA = Staphylococcus aureus ATCC 29213
[11] = test system: methicillin-resistant S. aureus SA 3202 (MRSA1); assay: MBC, agar aliquot subculture method; format: cell-based; conditions: Staphylococcus aureus; MRSA1 = SA 3202
[12] = test system: methicillin-resistant S. aureus SA 630 (MRSA2); assay: MBC, agar aliquot subculture method; format: cell-based; conditions: Staphylococcus aureus; MRSA2 = SA 630
[13] = test system: methicillin-resistant S. aureus 63718 (MRSA3); assay: MBC, agar aliquot subculture method; format: cell-based; conditions: Staphylococcus aureus; MRSA3 = 63718
[14] = test system: Enterococcus faecalis ATCC 29212; assay: MBC, agar aliquot subculture method; format: cell-based; conditions: ATCC29212; EF = Enterococcus faecalis
[15] = test system: vancomycin-resistant E. faecalis VRE 342B (VRE1); assay: MBC, agar aliquot subculture method; format: cell-based, Enterococcus faecalis; conditions: VRE1 = VRE 342B
[16] = test system: vancomycin-resistant E. faecalis VRE 368 (VRE2); assay: MBC, agar aliquot subculture method; format: cell-based, Enterococcus faecalis; conditions: VRE2 = VRE 368
[17] = test system: vancomycin-resistant E. faecalis VRE 725B (VRE3); assay: MBC, agar aliquot subculture method; format: cell-based, Enterococcus faecalis; conditions: VRE3 = VRE 725B
[18] = test system: normal human dermal fibroblasts (NHDF); assay: In vitro cell viability, WST-1 assay; format: cell-based; conditions: 72 h
Method: Compounds were evaluated for their antiproliferative activity using NHDF (normal human dermal fibroblasts, ATCC, Manassas, VA, USA). The cultured cells were kept at 37 °C and 5% CO2. The cells were seeded (1 × 10^4 cells/well/100 μL DMEM supplemented with 10% FCS and streptomycin/penicillin) into 96-well plates (Corning Inc., Corning, NY, USA). Cells were counted using a hemocytometer (Burker chamber) and phase contrast Olympus IX50 microscope equipped with Sony SSC-DC58 AP camera and Olympus DP10 digital camera. The cell viability of the compounds was determined using the Cell Proliferation Reagent WST-1 assay (Roche Molecular Biochemicals, Mannheim, Germany). The examined cells were exposed to the tested compounds (1 mg/mL DMSO stock) for 72 h at various concentrations (0.1–100 μg/mL). The control was included in order to eliminate the DMSO effect at the concentration used. Cell cultures were incubated with WST-1 (10 μL) for 1 h. The absorbance of the samples was measured against a background control at 450 nm using a microplate reader with a reference wavelength at 600 nm. The obtained results are expressed as means of at least two independent experiments performed in triplicate.

Lipophilicity by RP-TLC = format: physicochemical; conditions: Tris buffer pH 7.4/acetone, read-out: logPTLC
Method: The lipophilicity parameters were determined experimentally using reverse phase thin-layer chromatography (RP-TLC). Chromatograms were prepared on RP-18F254s plates (1.05559.0001, Merck, Germany) precoated with nonpolar silicone oil. Plates were developed in glass chromatography chambers previously saturated with vapor of mobile phase. The mobile phase was composed of 0.2M Tris buffer (pH = 7.4) and acetone in different concentrations, i.e., 50%, 60%, 70%, 80 and 90%. The chromatograms were visualised in UV light (λ = 254 nm). Determination of the RF coefficient was carried out twice for all compounds; in all cases, acetone concentrations used. The final value of RF is the mean of the two measurements. The obtained RF coefficient was used to calculate the value of the RM parameter according to the equation: RM = log [(1/RF) − 1]. By extrapolating RM values to zero acetone concentration, a relative RM0 lipophilicity parameter was obtained, according to the equation: RM = RM0 + bC, where b is slope and C is concentration of acetone in mobile phase. Based on RM0 and the calibration curve, the values of logPTLC for compounds 6a–l were determined. The calibration curve was calculated using the relationship between RM0 of the standard molecules (acetanilide, p-kresol, p-bromoacetophenone, benzophenone, anthracene) and the corresponding logP parameters specified by the extraction method, respectively. RM0 parameters of the standard molecules and quinobenzothiazine derivatives 6a–l were determined in the same empirical conditions.

[19] = test system: S. aureus ATCC 29213 respiratory activity; assay: MTT assay of bacterial respiration; format: cell-based, Staphylococcus aureus; conditions: for Conc.: corresponding multiple of MBC with at least 70% inhibition of respiratory activity / Conc.: lowest multiple of MIC with at least 70% inhibition of respiratory activity: S. aureus ATCC 29213, MTT, 24 h; for Decrease in viability < 70% at MIC value (MTT): S. aureus ATCC 29213, at MIC; for S. aureus Respiration Inhibition: at the concentration given
S. aureus = assay: Crystal violet uptake (membrane permeability); format: cell-based, Staphylococcus aureus; conditions: 4× MIC, 1 h; compared to growth control and 1% Tween 20
Method: Phenothiazines are also known for their ability to interact with and damage the cell wall, which has fatal consequences for the microorganism. Therefore, the bacterial suspensions were treated by compounds 6a, 6e, 6g, 6j and 6k (4× MIC) for 1 h. The uptake of crystal violet was expressed as a percentage compared to the original crystal violet solution.

Compound: CCCOc1ccc2c(c1)Sc1c[n+](C)c3ccccc3c1N2 [Compound 6a, 9-propoxy-5-methyl-12H-quino[3,4-b][1,4]benzothiazinium chloride]
MIC [1]: 22.3 µM
MIC [2]: 22.3 µM
MIC [3]: 22.3 µM
MIC [4]: 11.1 µM
MIC [5]: 89.1 µM
MIC [6]: 89.1 µM
MIC [7]: 89.1 µM
MIC [8]: 89.1 µM
MIC (M. smegmatis ATCC 700084): 22.3 µM
MIC [9]: 22.3 µM
MBC [10]: 22.3 µM
MBC [11]: 22.3 µM
MBC [12]: 22.3 µM
MBC [13]: 11.1 µM
MBC [14]: 89.1 µM
MBC [15]: 89.1 µM
MBC [16]: 89.1 µM
MBC [17]: 178 µM
IC50 [18]: > 100 µM
chromatographic logP (Lipophilicity by RP-TLC): 1.65
Conc.: corresponding multiple of MBC with at least 70% inhibition of respiratory activity [19]: 2× MIC (2× MBC)
Conc.: lowest multiple of MIC with at least 70% inhibition of respiratory activity [19]: 2× MIC (2× MBC)
Decrease in viability < 70% at MIC value (MTT) [19]: did not show a decrease in viability < 70%
S. aureus Respiration Inhibition [19]: 97.7%
Effect on plasma membrane permeability (uptake of crystal violet) (S. aureus): did not affect plasma membrane permeability

Compound: C=CCOc1ccc2c(c1)Nc1c(c[n+](C)c3ccccc13)S2 [Compound 6e, 10-allyloxy-5-methyl-12H-quino[3,4-b][1,4]benzothiazinium chloride]
MIC [1]: 44.8 µM
MIC [2]: 44.8 µM
MIC [3]: 44.8 µM
MIC [4]: 22.4 µM
MIC [5]: 89.6 µM
MIC [6]: 179 µM
MIC [7]: 179 µM
MIC [8]: 89.6 µM
MIC (M. smegmatis ATCC 700084): 22.4 µM
MIC [9]: 11.2 µM
MBC [10]: 44.8 µM
MBC [11]: 44.8 µM
MBC [12]: 44.8 µM
MBC [13]: 22.4 µM
MBC [14]: 89.6 µM
MBC [15]: 179 µM
MBC [16]: 179 µM
MBC [17]: 89.6 µM
IC50 [18]: > 100 µM
chromatographic logP (Lipophilicity by RP-TLC): 2.47
Conc.: corresponding multiple of MBC with at least 70% inhibition of respiratory activity [19]: 2× MIC (2× MBC)
Conc.: lowest multiple of MIC with at least 70% inhibition of respiratory activity [19]: 2× MIC (2× MBC)
Decrease in viability < 70% at MIC value (MTT) [19]: did not show a decrease in viability < 70%
S. aureus Respiration Inhibition [19]: 97.4%
Effect on plasma membrane permeability (uptake of crystal violet) (S. aureus): did not affect plasma membrane permeability

Compound: C#CCOc1ccc2c(c1)Sc1c[n+](C)c3ccccc3c1N2 [Compound 6g, 9-propargyloxy-5-methyl-12H-quino[3,4-b][1,4]benzothiazinium chloride]
MIC [1]: 45.1 µM
MIC [2]: 45.1 µM
MIC [3]: 45.1 µM
MIC [4]: 45.1 µM
MIC [5]: 90.1 µM
MIC [6]: 90.1 µM
MIC [7]: 90.1 µM
MIC [8]: 90.1 µM
MIC (M. smegmatis ATCC 700084): 22.5 µM
MIC [9]: 11.3 µM
MBC [10]: 45.1 µM
MBC [11]: 45.1 µM
MBC [12]: 45.1 µM
MBC [13]: 45.1 µM
MBC [14]: 90.1 µM
MBC [15]: 90.1 µM
MBC [16]: 90.1 µM
MBC [17]: 90.1 µM
IC50 [18]: > 100 µM
chromatographic logP (Lipophilicity by RP-TLC): 2.11
Conc.: corresponding multiple of MBC with at least 70% inhibition of respiratory activity [19]: 2× MIC (2× MBC)
Conc.: lowest multiple of MIC with at least 70% inhibition of respiratory activity [19]: 2× MIC (2× MBC)
Decrease in viability < 70% at MIC value (MTT) [19]: did not show a decrease in viability < 70%
S. aureus Respiration Inhibition [19]: 96.8%
Effect on plasma membrane permeability (uptake of crystal violet) (S. aureus): did not affect plasma membrane permeability

MIC [1]: 180 µM
MIC [2]: 180 µM
MIC [3]: 361 µM
MIC [4]: 180 µM
MIC [5]: 361 µM
MIC [6]: 180 µM
MIC [7]: 180 µM
MIC [8]: 180 µM
MIC (M. smegmatis ATCC 700084): 90.1 µM
MIC [9]: 45.1 µM
chromatographic logP (Lipophilicity by RP-TLC): 2.2
Compound: C#CCOc1cccc2c1Nc1c(c[n+](C)c3ccccc13)S2 [Compound 6i, 11-propargyloxy-5-methyl-12H-quino[3,4-b][1,4]benzothiazinium chloride]
MBC [10]: 180 µM
MBC [11]: 361 µM
MBC [12]: 361 µM
MBC [13]: 180 µM
MBC [14]: 361 µM
MBC [15]: 180 µM
MBC [16]: 180 µM
MBC [17]: 180 µM
IC50 [18]: 47.5 µM

Compound: C[n+]1cc2c(c3ccccc31)Nc1ccc(OCc3ccccc3)cc1S2 [Compound 6j, 9-benzyloxy-5-methyl-12H-quino[3,4-b][1,4]benzothiazinium chloride]
MIC [1]: 9.83 µM
MIC [2]: 4.91 µM
MIC [3]: 9.83 µM
MIC [4]: 2.46 µM
MIC [5]: 19.7 µM
MIC [6]: 19.7 µM
MIC [7]: 78.6 µM
MIC [8]: 39.3 µM
MIC (M. smegmatis ATCC 700084): 9.83 µM
MIC [9]: 2.5 µM
MBC [10]: 9.83 µM
MBC [11]: 9.83 µM
MBC [12]: 9.83 µM
MBC [13]: 2.46 µM
MBC [14]: 39.3 µM
MBC [15]: 19.7 µM
MBC [16]: 78.6 µM
MBC [17]: 39.3 µM
IC50 [18]: 37.7 µM
chromatographic logP (Lipophilicity by RP-TLC): 3.41
S. aureus Respiration Inhibition [19]: 91.3%
Effect on plasma membrane permeability (uptake of crystal violet) (S. aureus): did not affect plasma membrane permeability

MIC [1]: 39.3 µM
MIC [2]: 39.3 µM
MIC [3]: 78.6 µM
MIC [4]: 39.3 µM
MIC [5]: 157 µM
MIC [6]: 157 µM
MIC [7]: 157 µM
MIC [8]: 157 µM
MIC (M. smegmatis ATCC 700084): 39.3 µM
MIC [9]: 9.83 µM
chromatographic logP (Lipophilicity by RP-TLC): 3.1
Compound: C[n+]1cc2c(c3ccccc31)Nc1c(OCc3ccccc3)cccc1S2 [Compound 6l, 11-benzyloxy-5-methyl-12H-quino[3,4-b][1,4]benzothiazinium chloride]
MBC [10]: 39.3 µM
MBC [11]: 78.6 µM
MBC [12]: 78.6 µM
MBC [13]: 39.3 µM
MBC [14]: 157 µM
MBC [15]: 157 µM
MBC [16]: 157 µM
MBC [17]: 157 µM
IC50 [18]: > 100 µM
